Source: US20120309796A1, “BENZOCYCLOHEPTENE ACETIC ACIDS” (priority 2011, published 2012)

Assays:
[1] = biological target: T1, thromboxane A2 receptor (TP) (Homo sapiens, UniProt P21731); test: Human Thromboxane A2 Receptor Binding Assay; settings: human platelets; 10 nM [3H]SQ29548; 1 hour, room temperature
T1 construct: using human platelets as the source of the receptor; from tissue; host or cells: human platelets (whole platelets, 5x10^7 per well)
T1 sequence (P21731 1-343): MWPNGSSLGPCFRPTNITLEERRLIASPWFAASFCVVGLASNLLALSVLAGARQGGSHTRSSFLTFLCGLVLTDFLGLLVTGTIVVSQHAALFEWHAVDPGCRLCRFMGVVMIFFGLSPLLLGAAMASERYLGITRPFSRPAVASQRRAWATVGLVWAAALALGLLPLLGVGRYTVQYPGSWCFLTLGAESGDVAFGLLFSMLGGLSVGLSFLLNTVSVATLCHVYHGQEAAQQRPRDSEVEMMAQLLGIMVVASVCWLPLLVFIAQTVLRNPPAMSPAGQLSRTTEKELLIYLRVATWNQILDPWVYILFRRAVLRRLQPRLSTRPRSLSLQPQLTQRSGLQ
Source text: The thromboxane A2 receptor (TP) plays a key role in hemostasis as its abnormality leads to bleeding disorders. To avoid the potential liability of bleeding disorders, the binding activity of certain compounds of the present invention against TP was monitored by a receptor binding assay using human platelets as the source of the receptor and [^3H]SQ29548 (generically named (5Z)-[5,6-^3H]-7-[(1S,2R,3R,4R)-3-[[2-[(phenylamino)carbonyl]hydrazinyl]methyl]-7-oxabicyclo[2.2.1]hept-2-yl]-5-heptenoic acid, from PerkinElmer Inc.) as the competing radioactive ligand.
The TP binding reactions (0.2 mL) were performed in 96-well plates at room temperature in PBS containing 5×10^7 platelets, 10 mM MgCl2, 0.06% BSA, 10 nM [^3H]SQ29548, and the test compound at various concentrations. […] The radioactivities bound to the platelets were determined using a microplate scintillation counter (TopCount® NXT, from PerkinElmer Inc.) after adding 50 μL of Microscint™ 20 scintillation fluid (from PerkinElmer Inc.) to each well of the filter plates. The radioactivity from non-specific binding was determined by replacing the compound with 10 μM of ramatroban (BAY-u3405, from Cayman Chemical Company) in the reaction mixtures. The radioactivity bound to the platelets in the absence of compound (total binding) was determined by replacing the compound with 0.25% of DMSO in the reaction mixture. […]

human CRTH2 = biological target: T2, human CRTH2 (Homo sapiens, UniProt Q9Y5Y4); test: Human CRTH2 Receptor Binding Assay (whole cell, [3H]ramatroban competition); set-up: two mammalian expression vectors that harbored human CRTH2 and G-alpha16 cDNAs; expressed in transfected cells; settings: CHO-K1 cells expressing human CRTH2 and G-alpha16; 20 nM [3H]ramatroban; 1 hour, room temperature
T2 sequence (Q9Y5Y4 1-395): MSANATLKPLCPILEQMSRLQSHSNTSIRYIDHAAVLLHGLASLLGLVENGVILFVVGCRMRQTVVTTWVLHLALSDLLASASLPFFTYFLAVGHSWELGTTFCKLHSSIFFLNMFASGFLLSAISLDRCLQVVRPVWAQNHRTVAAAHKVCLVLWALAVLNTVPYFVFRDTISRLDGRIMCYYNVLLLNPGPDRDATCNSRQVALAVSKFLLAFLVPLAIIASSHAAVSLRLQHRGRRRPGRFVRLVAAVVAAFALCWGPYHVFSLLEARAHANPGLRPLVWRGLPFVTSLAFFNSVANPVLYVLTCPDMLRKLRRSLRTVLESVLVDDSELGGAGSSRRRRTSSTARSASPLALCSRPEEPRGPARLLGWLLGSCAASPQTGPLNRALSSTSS
Procedure, shortened: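 CHO-K1 cells stably co-expressing human CRTH2 and G-alpha16 (1.5×10^5/reaction) incubated 1 h at room temperature with 20 nM [3H]ramatroban in PBS, 10 mM MgCl2, 0.06% BSA. Non-specific binding defined with 10 μM 15(R)-15-methyl PGD2; IC50 from 7-point inhibition of specific binding, 4-parameter logistic fit.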

O=C(O)COc1cccc2c1CCCCC2NS(=O)(=O)c1cc(C(F)(F)F)cc(C(F)(F)F)c1 (single isomer, unassigned) [Example 46, [5-(3,5-Bis-trifluoromethyl-benzenesulfonylamino)-6,7,8,9-tetrahydro-5H-benzocyclohepten-1-yloxy]-acetic acid]
IC50 [1]: 3610 nM | IC50 (human CRTH2): 24.5 nM

O=C(O)COc1cccc2c1CCCCC2NS(=O)(=O)c1cc(C(F)(F)F)cc(C(F)(F)F)c1 (stereo not shown) [Example 1, [5-(3,5-Bis-trifluoromethyl-benzenesulfonylamino)-6,7,8,9-tetrahydro-5H-benzocyclohepten-1-yloxy]-acetic acid]
IC50 [1]: 642 nM | IC50 (human CRTH2): 8.9 nM
